{
  "source": "patent US6093702A",
  "about": "“Mixtures of dideoxy-nucleosides and hydroxycarbamide for inhibiting retroviral spread” (The United States of America as represented by the …, priority 1995, dated 2000)",
  "key": {"HIV-1 virus strain IIIB": {"system": "HIV-1 virus strain IIIB", "assay": "microbe, parasite or virus in culture", "conditions": "for inhibition at 5 µM: read-out: inhibition of viral replication; for effect on viral replication (in words): non-activated CD4+ lymphocytes, HC 0.05 or 0.15 mM, ddI or AZT 5 μM; for p24-HIV production in culture supernatant: day 15, infected control 86215", "method": "(§1) Non-activated CD4^+ cells were infected, then treated for 7 days by HC, ddI or the combination of the two, then activated by PHA and IL-2 (PHA-IL-2).\n(§2) The CD4^+ lymphocytes were purified from PBMC with immunomagnetic beads (Dynabeads* M450). These cells were infected with the HIV-1 virus strain IIIB at a multiplicity of infection of 5 000 tissue culture infectious dose (TCID) per 10^6 cells (241 pg/ml p24 antigen equivalent of virus). After 2 hours of virus-cell contact, the cells were washed twice and placed in the culture medium RPMI 1640 (supplemented with 10% fetal calf serum (FCS), 2 mM glutamine, penicillin 100 IU/ml and Streptomycin 100 μg/ml) at a density of 1.3×10^6 cells/ml. ddI was immediately added at a concentration of 5 μM and HC at concentrations of 0.05 mM and […]. The drugs and culture medium were partially renewed (50%) on day 4, maintaining the same concentration of each. On day 7, in order to remove the drugs, the cells were washed twice and put back in culture in the presence of PHA at a concentration of 1 μg/ml and recombinant IL-2 at a concentration of 20 U/ml. This culture was maintained until day 25, with partial renewal (50%) of the medium twice a week. The number of viable cells was quantified by a tetrazolium-based colorimetric 3-(4,5-dimethylthiazol-2-yl)-2,5-diphenyltetrazolium bromide (MTT) method (Pauwels, R. et al J. Virol. Methods, 20, 309-321, (1988)), and activity is expressed as a percentage of the signal in the drug-free and virus-free control. Viral replication was quantified by measuring the HIV-1 p24 antigen by ELISA using the Dupont de Nemours kit.\nIn FIG. 2, there is shown a study of the activity of the combination of AZT and HC on non-activated CD4^+ lymphocytes infected with the HIV virus. The CD4^+ lymphocytes were purified from PBMC with immunomagnetic beads (Dynabeads* M450). These cells were infected with the HIV-1 virus strain IIIB at a multiplicity of infection of 5 000 tissue culture infectious dose (TCID) per 10^6 cells (241 pg/ml p24 antigen equivalent of virus). After 2 hours of virus-cell contact, the cells were washed twice and placed in the culture medium RPMI 1640 (supplemented with 10% FCS, 2 mM glutamine, penicillin 100 IU/ml and streptomycin 100 μg/ml) at a density of 1.3×10^6 cells/ml. AZT was immediately added at a concentration of 5 μM and HC at a concentration of 0.05 mM and 0.15 mM. The drugs and culture medium were partially renewed (50%) on day 4, maintaining the same concentration of each. On day 7, in order to remove the drugs, the cells were washed twice and put back in culture in the presence of PHA at a concentration of 1 μg/ml and recombinant IL-2 at a concentration of 20 U/ml. This culture was maintained until day 25, with partial renewal (50%) of the medium twice a week. The number of viable cells was quantified by a tetrazolium-based colorimetric 3-(4,5-dimethylthiazol-2-yl)-2,5-diphenyltetrazolium bromide (MTT) method (Pauwels, R. et al J. Virol. Methds, 20,309-321, (1988)), and activity is expressed as a percentage of the signal in the drug-free and virus-free control. Viral replication was quantified by measuring the HIV-1 p24 antigen by ELISA using the Dupont de Nemours kit."}, "HIV-1 strain IIIB": {"system": "HIV-1 strain IIIB", "assay": "microbe, parasite or virus in culture", "conditions": "for p24 production: day 6", "method": "(§3) The PBMC were purified from peripheral blood by discontinous Ficoll density gradient centrifugation. The cells were grown at a density of 1.3×10^6 cells/ml in RPMI 1640 medium supplemented with 10% FCS, 2 mM glutamine, penicillin 100 IU/ml and streptomycin 100 μg/ml, in the presence of PHA at a concentration of 1 μg/ml and recombinant IL-2 at 20 U/ml for 72 hours, then infected by HIV-1 strain IIIB at a multiplicity of 5000 TCID for 10^6 cells (241 pg/ml p24 antigen equivalent of virus). In FIG. 3, the first time point represent viral infection of the cells. After 2 hours of virus-cell contact, the cells were washed twice and placed in the culture medium containing IL-2 but without PHA in the presence of ddI at a concentration of 10 μM and of HC at a concentration of 0.15 mM. These cultures were maintained for 20 days, with partial renewal of the medium and of the two drugs twice a week maintaining the initial concentration. At day 6 and day 14 fresh uninfected donor PBMC were added (5×10^5 /ml) to replenish aged cultures (Nature, 361:1993, 650-654). The number of viable cells were quantified by a tetrazolium-based colorimetric 3-(4,5-dimethylthiazol-2-yl)-2,5-diphenyltetrazolium bromide (MTT) method (Pauwels, R. et al J. Virol. Methods, 20:309-321, (1988)), and activity is expressed as a percentage of the signal in the drug-free and virus-free control. Viral replication was quantified by measuring the HIV-1 p24 antigen by ELISA using the Dupont de Nemours kit."}, "[1]": {"assay": "Cytotoxicity in non-activated lymphocytes (PBLs) pretreated 24 h and then activated 48 h", "type": "cell-based", "conditions": "human, HC 1 mM, 24 h pretreatment, then PHA and IL-2 for 48 h in presence of HC, read-out: PBLs dying due to the drug's toxicity", "text": "Under such conditions, greater than 70% of the PBLs die due to the drug's toxicity."}, "in vitro": {"assay": "in vitro", "conditions": "human, cd4+ lymphocytes", "method": "as §1\nas §2, with “This culture was maintained until day 25, with partial renewal (50%) of the medium twice a week.” left out\n(§4) In FIG. 2, there is shown a study of the activity of the combination of AZT and HC on non-activated CD4^+ lymphocytes infected with the HIV virus. […] The number of viable cells was quantified by a tetrazolium-based colorimetric 3-(4,5-dimethylthiazol-2-yl)-2,5-diphenyltetrazolium bromide (MTT) method (Pauwels, R. et al J. Virol. Methds, 20,309-321, (1988)), and activity is expressed as a percentage of the signal in the drug-free and virus-free control. Viral replication was quantified by measuring the HIV-1 p24 antigen by ELISA using the Dupont de Nemours kit."}, "[2]": {"system": "PBMC preactivated with PHA and IL-2", "assay": "Inhibitory concentration 50% in preactivated PBMC by MTT test", "type": "cell-based", "conditions": "72 h, read-out: IC50 (inhibitory concentration 50%), after 3 days", "method": "as §3, with “At day 6 and day 14 fresh uninfected donor PBMC were added (5×10^5 /ml) to replenish aged cultures (Nature, 361:1993, 650-654).” left out"}, "[3]": {"system": "dNTP pools in PHA-stimulated PBLs", "conditions": "HC 1 mM, cited from earlier work"}, "[4]": {"assay": "Cell viability of preactivated PBMC by Trypan Blue exclusion", "type": "cell-based", "conditions": "human, HC 0.15 mM, 2% Trypan Blue exclusion, read-out: cellular viability"}, "[5]": {"system": "non-activated CD4+ lymphocytes", "assay": "in vitro", "conditions": "after PHA-IL-2 stimulation", "method": "as §1\nas §2, with “This culture was maintained until day 25, with partial renewal (50%) of the medium twice a week.” left out\nas §4"}, "[6]": {"conditions": "Human immunodeficiency virus 1, IIIB, Lymphocyte"}, "[7]": {"conditions": "single drug 5 μM, infected control 86215 pg p24/ml"}, "[8]": {"conditions": "Human immunodeficiency virus 1, IIIB, PBMC, 144 h, read-out: inhibition of viral replication"}},
  "note": "Entries after “also recorded” stand apart in the source; their conditions may differ. Like-named read-outs stand apart in the source and are kept apart here.",
  "data": [
    {"smiles": "Cc1cn([C@H]2C[C@H](N=[N+]=[N-])[C@@H](CO)O2)c(=O)[nH]c1=O", "note": "[AZT, 3'-azido-2',3'-dideoxythymidine]", "values": [
      {"measurement": "log reduction at 5 µM", "setting": "HIV-1 virus strain IIIB; Human immunodeficiency virus 1, IIIB, Lymphocyte, read-out: antiviral activity (log reduction)", "result": "< 1"},
      {"measurement": "inhibition at 5 µM", "setting": "HIV-1 virus strain IIIB; [6]", "result": 88.4, "unit": "%"},
      {"measurement": "effect on viral replication (in words)", "setting": "HIV-1 virus strain IIIB", "result": "only slight antiviral activity; also recorded: only a slight effect on viral replication"},
      {"measurement": "p24 production", "setting": "HIV-1 virus strain IIIB; [7]", "result": 10300, "unit": "pg p24/ml"}
    ]},
    {"smiles": "NC(=O)NO", "note": "[HC, hydroxycarbamide]", "values": [
      {"measurement": "p24-HIV production in culture supernatant", "setting": "HIV-1 virus strain IIIB; HC 0.05 mM", "result": "75460 pg of p24/ml"},
      {"measurement": "p24-HIV production in culture supernatant", "setting": "HIV-1 virus strain IIIB; HC 0.15 mM", "result": "82005 pg of p24/ml"},
      {"measurement": "effect on viral replication (in words)", "setting": "HIV-1 virus strain IIIB", "result": "incapable of preventing the production of infectious virions"},
      {"measurement": "p24 production", "setting": "HIV-1 strain IIIB; HC alone 0.15 mM", "result": 12500, "unit": "pg p24/ml"},
      {"measurement": "inhibition at 150 µM", "setting": "HIV-1 strain IIIB; [8]", "result": 82.6, "unit": "%"},
      {"measurement": "cytotoxicity at 72 h, 1000 µM", "setting": "[1]", "result": "> 70", "unit": "%"},
      {"measurement": "cytotoxicity at 50 µM", "setting": "in vitro", "result": "> 50", "unit": "%"},
      {"measurement": "cytotoxicity at 150 µM", "setting": "in vitro", "result": "> 50", "unit": "%"},
      {"measurement": "IC50", "setting": "[2]", "result": 150, "unit": "µM"},
      {"measurement": "effect on dNTP levels and DNA synthesis rate (in words)", "setting": "[3]; listed as hydroxyurea", "result": "decreases dNTP levels and the DNA synthesis rate to levels comparable to quiescent PBLs; also recorded: decreases the dNTP levels and the DNA synthesis rate to levels comparable to quiescent PBLs"},
      {"measurement": "effect on dNTP levels and DNA synthesis rate (in words)", "setting": "[3]", "result": "partially reduces the various dNTP pools studied"},
      {"measurement": "viability at 72 h, 150 µM", "setting": "[4]", "result": "> 90", "unit": "%"}
    ]},
    {"smiles": "OC[C@@H]1CC[C@H](n2cnc3c(O)ncnc32)O1", "note": "[ddI, 2',3'-dideoxy-inosine]", "values": [
      {"measurement": "inhibition at 5 µM", "setting": "HIV-1 virus strain IIIB; [6]", "result": 99.1, "unit": "%"},
      {"measurement": "p24 production", "setting": "HIV-1 virus strain IIIB; ddI 5 μM alone, day 25", "result": 101080, "unit": "pg p24/ml"},
      {"measurement": "effect on viral replication (in words)", "setting": "HIV-1 virus strain IIIB", "result": "reached substantially the same level of p24 production as the infected control; also recorded: only temporarily and partially inhibited"},
      {"measurement": "p24 production", "setting": "HIV-1 virus strain IIIB; [7]", "result": 766, "unit": "pg p24/ml"},
      {"measurement": "inhibition at 10 µM", "setting": "HIV-1 strain IIIB; [8]", "result": 97.1, "unit": "%"},
      {"measurement": "p24 production", "setting": "HIV-1 strain IIIB; ddI alone 10 μM", "result": 2071, "unit": "pg p24/ml"},
      {"measurement": "proliferative cellular response / cytopathic effect (in words)", "setting": "[5]", "result": "cytopathic effect was observed later"}
    ]}
  ]
}
